Test results reported in patent US20060122175A1, “Benzdioxane piperazine derivatives with a combination of affinity for dopamine-D2 receptors and serotonin reuptake sites” (SOLVAY PHARMACEUTICALS B.V., priority 2004, published 2006).
Where a name gives a salt, the structure may show the parent alone.

How the values were obtained:
dopamine-D2 receptors = target: T1, dopamine-D2 receptors (Rattus norvegicus, UniProt P61169); assay: In vitro affinity for dopamine-D2 receptors ([3H]-spiroperidol receptor binding assay); conditions: average values from three independent experiments
T1 construct: labels dopamine receptors in rat pituitary and brain; from tissue; host or cells: rat pituitary and brain (per the title of the cited method)
T1 sequence (P61169 whole entry): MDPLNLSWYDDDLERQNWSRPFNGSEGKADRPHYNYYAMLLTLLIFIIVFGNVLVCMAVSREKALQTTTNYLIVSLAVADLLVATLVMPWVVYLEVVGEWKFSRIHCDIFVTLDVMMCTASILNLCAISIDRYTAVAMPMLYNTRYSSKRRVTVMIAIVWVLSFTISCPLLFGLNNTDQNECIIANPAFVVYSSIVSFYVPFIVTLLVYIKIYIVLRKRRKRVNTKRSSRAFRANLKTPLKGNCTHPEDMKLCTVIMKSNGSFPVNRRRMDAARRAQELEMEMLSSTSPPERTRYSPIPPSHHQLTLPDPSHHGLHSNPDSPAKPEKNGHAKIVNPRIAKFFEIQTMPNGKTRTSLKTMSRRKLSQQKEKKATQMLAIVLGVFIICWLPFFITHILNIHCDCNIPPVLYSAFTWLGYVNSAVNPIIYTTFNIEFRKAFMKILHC
Experimental: The affinity of the compounds of the invention for dopamine-D2 receptors and serotonine reuptake sites was determined as described above. […] Pharmacokinetic, pharmacodynamic, and other considerations may alter the dose actually administered to a higher or lower value. The dosage expediently administered is 0.001-1000 mg/kg, preferably 0.1-100 mg/kg of patient's bodyweight.
(§1) The results in the table below were obtained according to the methods described above. Binding data are average values from three independent experiments.

dopamine D2 receptors = assay: Antagonism of apomorphine-induced climbing behaviour in mice (APO-climb); conditions: Mus musculus, po, read-out: in vivo activity Dopamine-D2 APO-climb* ED50 mg/kg po
serotonin reuptake = assay: Potentiation of 5-HTP induced behaviour in mice; conditions: Mus musculus, po, read-out: in vivo activity 5-HT reuptake 5-HTP** ED50 mg/kg po
Description: The compounds show activity as antagonists at dopamine D2 receptors as they potentially antagonize apomorphine-induced climbing behaviour in mice (B. Costall et al., ‘Climbing behaviour induced by apomorphine in mice: a potential model for the detection of neuroleptic activity’, Eur. J. Pharmacol., 1978, 1, 39-50). The compounds also show activity as inhibitors of serotonin reuptake, as they potentiate 5-HTP induced behaviour in mice (B. L. Jacobs., ‘An animal behaviour model for studying central serotonergic synapses’, Life Sci., 1976, 19(6), 777-785). The compounds are active in therapeutic models sensitive to clinically relevant antipsychotics (e.g. the conditioned avoidance response; Van der Heyden & Bradford, Behav. Brain Res., 1988, 31:61-67) and antidepressants or anxiolytics (e.g. suppression of stress-induced vocalization; van der Poel et al., Psychopharmacology, 1989, 97: 147-148). In contrast to clinically relevant dopamine D2 receptor antagonists the described compounds have a low propensity to induce catalepsy in rodents and as such are likely to induce less extrapyramidal side effects than existing antipsychotic agents. The inhibitory activity of serotonin reuptake inherent in these compounds may be responsible for the therapeutic effects observed in behavioural models sensitive to either antidepressants or anxiolytics. The compounds can be used for the treatment of affections or diseases of the central nervous system caused by disturbances in either the dopaminergic or serotonergic systems, for example: aggression, anxiety disorders, autism, vertigo, depression, disturbances of cognition or memory, Parkinson's disease, and in particular schizophrenia and other psychotic disorders.

serotonin reuptake sites = target: T2, serotonin reuptake sites (Rattus norvegicus, UniProt P31652); assay: In vitro affinity for serotonin reuptake sites ([3H]-paroxetine receptor binding assay); conditions: average values from three independent experiments; read-out: in vitro affinity 5-HT reuptake binding Ki
T2 construct: from tissue; host or cells: rat cortical membranes (per the title of the cited method)
T2 sequence (P31652 whole entry): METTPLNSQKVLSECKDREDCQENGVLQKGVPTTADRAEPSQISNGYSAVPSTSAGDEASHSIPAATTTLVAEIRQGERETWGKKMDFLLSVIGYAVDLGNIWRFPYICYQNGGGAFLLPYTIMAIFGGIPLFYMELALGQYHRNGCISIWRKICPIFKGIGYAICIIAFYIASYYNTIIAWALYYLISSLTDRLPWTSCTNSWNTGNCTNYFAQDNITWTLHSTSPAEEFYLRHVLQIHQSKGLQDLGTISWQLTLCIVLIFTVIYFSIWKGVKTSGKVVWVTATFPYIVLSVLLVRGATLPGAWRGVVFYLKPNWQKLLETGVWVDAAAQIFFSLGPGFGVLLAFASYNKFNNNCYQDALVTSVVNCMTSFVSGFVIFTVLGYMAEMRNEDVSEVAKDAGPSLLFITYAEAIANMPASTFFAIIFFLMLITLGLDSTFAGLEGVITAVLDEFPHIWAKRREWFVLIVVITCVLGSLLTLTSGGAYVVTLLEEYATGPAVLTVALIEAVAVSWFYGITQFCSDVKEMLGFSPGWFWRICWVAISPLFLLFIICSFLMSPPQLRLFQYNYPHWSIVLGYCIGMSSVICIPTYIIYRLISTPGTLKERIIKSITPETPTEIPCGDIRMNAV
Experimental: The affinity of the compounds of the invention for dopamine-D2 receptors and serotonine reuptake sites was determined as described above. From the binding affinity measured for a given compound of formula (1), one can estimate a theoretical lowest effective dose. […] Converting that concentration to mg of compound per kg of patient yields a theoretical lowest effective dose, assuming ideal bioavailability. Pharmacokinetic, pharmacodynamic, and other considerations may alter the dose actually administered to a higher or lower value. The dosage expediently administered is 0.001-1000 mg/kg, preferably 0.1-100 mg/kg of patient's bodyweight.
as §1

Structure (SMILES)	melting point	Ki (dopamine-D2 receptors) [µM]	ED50 (serotonin reuptake) [mg/kg]	further results
Fc1ccc2c(CCCN3CCN(c4cccc5c4OCCO5)CC3)c[nH]c2c1 (as salt: fumaric acid salt) [Compound 5f, 3-{3-[4-(2,3-Dihydro-benzo[1,4]dioxin-5-yl)-piperazin-1-yl]-propyl}-6-fluoro-1H-indole]	205 to 206 °C			
Clc1ccc2[nH]cc(CCCN3CCN(c4cccc5c4OCCO5)CC3)c2c1 (as salt: fumaric acid salt) [Compound 5j, 3-{3-[4-(2,3-Dihydro-benzo[1,4]dioxin-5-yl)-piperazin-1-yl]-propyl}-5-chloro-1H-indole]	61 to 63 °C			
Cc1ccc2[nH]cc(CCCN3CCN(c4cccc5c4OCCO5)CC3)c2c1 (as salt: fumaric acid salt) [Compound 5m, 3-{3-[4-(2,3-Dihydro-benzo[1,4]dioxin-5-yl)-piperazin-1-yl]-propyl}-5-methyl-1H-indole]	215 to 217 °C (dec.)			
c1cc2c(c(N3CCN(Cc4c[nH]c5ccccc45)CC3)c1)OCCO2 [Compound 5a, 3-[4-(2,3-Dihydro-benzo[1,4]dioxin-5-yl)-piperazin-1-yl-methyl]-1H-indole]	85 to 86 °C			
c1cc2c(c(N3CCN(CCCc4c[nH]c5ccccc45)CC3)c1)OCCO2 [Compound 5b, 3-{3-[4-(2,3-Dihydro-benzo[1,4]dioxin-5-yl)-piperazin-1-yl]-propyl}-1H-indole]	150 to 152 °C	0.021 ± 0.0099	22	ED50 (dopamine D2 receptors): 10 mg/kg
c1cc2c(c(N3CCN(CCCCCc4c[nH]c5ccccc45)CC3)c1)OCCO2 [Compound 5c, 3-{5-[4-(2,3-Dihydro-benzo[1,4]dioxin-5-yl)-piperazin-1-yl]-pentyl}-1H-indole]		0.0091 ± 0.0018		
Fc1cccc2[nH]cc(CCCN3CCN(c4cccc5c4OCCO5)CC3)c12 [Compound 5d, 3-{3-[4-(2,3-Dihydro-benzo[1,4]dioxin-5-yl)-piperazin-1-yl]-propyl}-4-fluoro-1H-indole]	207 to 208 °C	0.0081 ± 0.0031	32	ED50 (dopamine D2 receptors): 13 mg/kg
Fc1ccc2[nH]cc(CCCN3CCN(c4cccc5c4OCCO5)CC3)c2c1 [Compound 5e, 3-{3-[4-(2,3-Dihydro-benzo[1,4]dioxin-5-yl)-piperazin-1-yl]-propyl}-5-fluoro-1H-indole]		0.019 ± 0.003	2	
Fc1ccc2c(CCCN3CCN(c4cccc5c4OCCO5)CC3)c[nH]c2c1 [Compound 5f, 3-{3-[4-(2,3-Dihydro-benzo[1,4]dioxin-5-yl)-piperazin-1-yl]-propyl}-6-fluoro-1H-indole]			30	ED50 (dopamine D2 receptors): 9 mg/kg
Fc1cccc2c(CCCN3CCN(c4cccc5c4OCCO5)CC3)c[nH]c12 [Compound 5g, 3-{3-[4-(2,3-Dihydro-benzo[1,4]dioxin-5-yl)-piperazin-1-yl]-propyl}-7-fluoro-1H-indole]		0.0106 ± 0.004	28.4	
COc1ccc2[nH]cc(CCCN3CCN(c4cccc5c4OCCO5)CC3)c2c1 [Compound 5h, 3-{3-[4-(2,3-Dihydro-benzo[1,4]dioxin-5-yl)-piperazin-1-yl]-propyl}-5-methoxy-1H-indole]		0.005 ± 0.004		
Clc1cccc2[nH]cc(CCCN3CCN(c4cccc5c4OCCO5)CC3)c12 [Compound 5i, 3-{3-[4-(2,3-Dihydro-benzo[1,4]dioxin-5-yl)-piperazin-1-yl]-propyl}-4-chloro-1H-indole]		0.024 ± 0.003		
Clc1ccc2[nH]cc(CCCN3CCN(c4cccc5c4OCCO5)CC3)c2c1 [Compound 5j, 3-{3-[4-(2,3-Dihydro-benzo[1,4]dioxin-5-yl)-piperazin-1-yl]-propyl}-5-chloro-1H-indole]		0.0316 ± 0.016		Ki (serotonin reuptake sites): 0.0014 ± 0.0007 µM
Clc1ccc2c(CCCN3CCN(c4cccc5c4OCCO5)CC3)c[nH]c2c1 [Compound 5k, 3-{3-[4-(2,3-Dihydro-benzo[1,4]dioxin-5-yl)-piperazin-1-yl]-propyl}-6-chloro-1H-indole]		0.0021 ± 0.001	86	ED50 (dopamine D2 receptors): 4.5 mg/kg
Clc1cccc2c(CCCN3CCN(c4cccc5c4OCCO5)CC3)c[nH]c12 [Compound 5l, 3-{3-[4-(2,3-Dihydro-benzo[1,4]dioxin-5-yl)-piperazin-1-yl]-propyl}-7-chloro-1H-indole]		0.0155 ± 0.0054		
Cc1ccc2[nH]cc(CCCN3CCN(c4cccc5c4OCCO5)CC3)c2c1 [Compound 5m, 3-{3-[4-(2,3-Dihydro-benzo[1,4]dioxin-5-yl)-piperazin-1-yl]-propyl}-5-methyl-1H-indole]				Ki (serotonin reuptake sites): 0.0013 ± 0.0009 µM
Cc1cccc2c(CCCN3CCN(c4cccc5c4OCCO5)CC3)c[nH]c12 [Compound 5n, 3-{3-[4-(2,3-Dihydro-benzo[1,4]dioxin-5-yl)-piperazin-1-yl]-propyl}-7-methyl-1H-indole]		0.0159 ± 0.0047		
c1cc2c(c(N3CCN(CCCc4c[nH]c5ccccc45)CC3)c1)CCCO2 [Compound 14, 3-[3-(4-chroman-5-yl-piperazine-1-yl)-propyl]-1H-indole]		0.0203 ± 0.0027		
